“Also recorded” adds a separate entry of the source.
Key:
Type in all cases: cell-based, human
[1] = tested on: MDA-MB-231 metastatic breast cancer cells; test: Cell viability, CellTiter 96 AQueous One Solution Cell Proliferation Assay; details: HV-107 24 or 48 h, HV-118 48 h
Procedure: (§1) FIG. 7. Effect of HV-107 on cell viability. Cells were treated with vehicle control (0.5% DMSO) or varying concentrations of HV-107 (250-6000 nM) for 48 h. Cell viability was measured using the CellTiter 96® AQueous One Solution Cell Proliferation Assay from Promega, as per manufacturer's instruction. Relative cell viability is presented for non-cancerous mammary epithelial cells (MCF10A) or metastatic breast cancer cells MDA-MB-231 or MDA-MB-435. N=3-4, each with three technical replicates; Error bars represent ±SEM; * p≤0.05.
(§2) FIG. 9. Effect of HV-118 on cell viability. Cells were treated with vehicle control (0.5% DMSO) or varying concentrations of HV-118 (10-500 nM) for 48 h. Cell viability was measured using the CellTiter 96® AQueous One Solution Cell Proliferation Assay from Promega, as per manufacturer's instruction. Relative cell viability is presented for human non-cancerous mammary epithelial cells (MCF10A) or human metastatic breast cancer cells MDA-MB-231 or MDA-MB-435. N=3, each with three technical replicates; error bars represent ±SEM; * p≤0.05.
(§3) Cells were treated with ehicle control (0.5% DMSO) or varying concentrations of HV-107 (250-8000 nM) for 24 or 48 h. Cell viability was measured using the CellTiter 96® AQueous One Solution Cell Proliferation Assay from Promega, as per manufacturer's instruction. Relative cell viability is presented for non-cancerous mammary epithelial cells MCF10A (FIG. 7) or metastatic breast cancer cells MDA-MB-231 or MDA-MB-435. N=3, each with three technical replicates; Error bars represent ±SEM; * p≤0.05.
as §2, with “Cells” for “FIG. 9. Effect of HV-118 on cell viability. Cells”, “MCF10A (FIG. 9)” for “(MCF10A)”

[2] = tested on: MDA-MB-435 metastatic breast cancer cells; test: as above; details: HV-107 24 or 48 h, HV-118 48 h
Procedure: as §1, §2, §3
as §2, with “Cells” for “FIG. 9. Effect of HV-118 on cell viability. Cells”, “MCF10A (FIG. 9)” for “(MCF10A)”

[3] = tested on: non-cancerous mammary epithelial cells MCF10A; test: as above; details: for toxicity / effect on viability of non-cancerous mammary epithelial cells, in words: MCF10A, at the concentrations tested
Procedure: as §1, §2, §3
as §2, with “Cells” for “FIG. 9. Effect of HV-118 on cell viability. Cells”, “MCF10A (FIG. 9)” for “(MCF10A)”

caspase 3 = test: Caspase-Glo 3/7 assay
Procedure: FIG. 15 (A-D). Effect of HV-107 and HV-118 on Caspase 3/7 activity. FIG. 15 A, C. MDA-MB-231 and FIG. 15 B, D. MDA-MB-435 human metastatic breast cancer cells were treated for 48 or 72 h with 0, 500 or 1000 nM HV-107, 100 or 200 nM HV-118. Caspase 3/7 activity was measured using the Caspase-Glo 3/7 Assay (Promega, Corp.) as per manufacturer's instruction. N=4: error bars represent ±SEM; * p≤0.05.
(§4) Subsequently, the effects of HV-107 and HV-118 were evaluated in cell survival and cell migration, known Rac-regulated cell functions relevant for cancer progression. The effects of HV-107 and HV-118 on cancer cell survival were determined by measuring the levels of active caspase 3 in MDA-MB-231 and MDA-MB-435 metastatic breast cancer cells after treatment with HV-107 at 500 and 1000 nM, or HV-118 at 100 and 200 nM for 48-72 h. After 48 h, HV-107 caused a significant 1.4-1.5 fold increase in caspase 3 activity in MDA-MB-231 (at 500 and 1000 nM) and MDA-MB-435 (at 1000 nM) cells. […] The effects of both compounds were also examined in the activity of Akt, an important kinase that promotes survival signaling, is frequently hyperactivated in malignant cancers, and can be regulated by Rac. Because Akt is activated by phosphorylation events, the effects of HV-107 and HV-118 were analyzed in Akt phosphorylation by western blot (FIG. 16 (A-D)).

Akt = Akt phosphorylation by western blot; details: 24 h
Procedure: FIG. 16 (A-D). Inhibition of pAKT by HV-107 and HV-118. FIG. 16 A, C. MDA-MB-231 and FIG. 16 B, D. MDA-MB-435 human metastatic breast cancer cells were treated for 24 h with 0, 250, 500 or 1000 nM HV-107, 100 or 200 nM HV-118. After treatment, total protein was extracted, and equal amounts of proteins were western blotted for total and phosphorylated Akt (pAkt). Positive bands were quantified using image J. N=4-6; error bars represent t SEM; * p≤0.05.
as §4

Row | Compound | concentration at which viability is significantly inhibited [1] [nM] | concentration at which viability is significantly inhibited [2] [nM] | toxicity / effect on viability of non-cancerous mammary epithelial cells, in words ([3]; listed as HV-107) | toxicity to non-cancerous mammary epithelial cells, in words ([3]; at concentrations ≥1 μM) | fold increase in caspase 3 activity (caspase 3; MDA-MB-231, 48 h, 500 and 1000 nM) | fold increase in caspase 3 activity (caspase 3; MDA-MB-435, 48 h, 1000 nM) | inhibition at 1 µM (Akt; Homo sapiens, MDA-MB-435, 1000 nM) [%] | inhibition of Akt phosphorylation (Akt; MDA-MB-231, 250-1000 nM) | toxicity / effect on viability of non-cancerous mammary epithelial cells, in words [3] | fold increase in caspase 3 activity (caspase 3; MDA-MB-231, 48 h, 100 and 200 nM) | fold increase in caspase 3 activity (caspase 3; MDA-MB-435, 72 h, 'the same level' as in MDA-MB-231) | inhibition of Akt phosphorylation (Akt; both MDA-MB-231 and MDA-MB-435, 100 and 200 nM)
1 | CCn1c2ccccc2c2cc(C(=O)Nc3cccnc3N3CCOCC3)ccc21 [Compound 11b, 9-Ethyl-9H-carbazole-3-carboxylic Acid (2-morpholin-4-yl-pyridin-3-yl)-amide] | ≥ 500 | ≥ 500 | minimal toxicity; also recorded: minimal or no inhibition | not toxic | 1.4-1.5 fold | 1.4-1.5 fold | 25 | 50-60% | – | – | – | –
2 | CCn1c2ccccc2c2cc(Nc3cc(C)nc(Cl)n3)ccc21 [HV-118, (2-Chloro-6-methyl-pyrimidin-4-yl)-(9-ethyl-9H-carbazol-3-yl)-amine] | ≥ 50 | ≥ 50 | – | – | – | – | – | – | minimal effects; also recorded: minimal or no inhibition; also recorded: minimal toxicity | 1.6-1.8 fold | 1.6-1.8 fold | 40-60%
